Some test systems named below: KM12 colon; HT29 colon; A549 NSCLC; SF-268 CNS; NCI-H460 lung; OVCAR-3 ovarian; NCI-H226 lung; U251 CNS; COLO 205 colon; SK-OV-3 ovarian.
Assay in all cases: NCI-60 cell line screen, 48 h

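Results reflect a 48-hour exposure of cells in 96-well plates to compound at five concentrations. GI50: concentration for 50% inhibition of growth. Definition used: TGI = concentration required for complete inhibition of growth.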

The values that follow come from PubChem BioAssay (NCI).

For the molecule `O=C(Nc1cccc(Cc2cccc(NC(=O)c3ccccc3)c2)c1)c1ccccc1`, the TGI with KM12 colon, in the test on HT29 colon, in the test on A549 NSCLC, with SF-268 CNS, with NCI-H460 lung and with OVCAR-3 ovarian was more than 100 µM each time. Further, the TGI was more than 100 µM in the test with NCI-H226 lung, more than 100 µM in the test on U251 CNS, more than 100 µM in the test on COLO 205 colon and 62.5 µM with SK-OV-3 ovarian.

With `CC(C)CC(=O)Nc1n[nH]c2c1CN(C(=O)C1CCN(C)CC1)C2(C)C`, the GI50 in the test on KM12 colon was 0.72 µM; with HT29 colon, 0.79 µM; with A549 NSCLC, 1.15 µM; in the test on SF-268 CNS, 1.9 µM; in the test on NCI-H460 lung it was 0.309 µM; with OVCAR-3 ovarian, 0.435 µM. Further, the GI50 is 1.48 µM in the test with NCI-H226 lung, 0.439 µM in the test with U251 CNS, 0.331 µM with COLO 205 colon and 2.53 µM with SK-OV-3 ovarian. Further, the TGI with KM12 colon is more than 10 µM; in the test with HT29 colon, more than 10 µM; with A549 NSCLC, more than 10 µM; with SF-268 CNS, more than 10 µM; with NCI-H460 lung, more than 10 µM; with OVCAR-3 ovarian, 5.25 µM. Moreover, the TGI in the test on NCI-H226 lung is more than 10 µM; in the test with U251 CNS it was more than 10 µM; with COLO 205 colon, 2.19 µM; with SK-OV-3 ovarian it was more than 10 µM.

For the molecule `OC(COc1ccc(F)cc1)Cn1cnc2c(Cl)ncnc21` (stereo not given), the GI50 is more than 100 µM with KM12 colon; more than 100 µM in the test on HT29 colon; more than 100 µM in the test on A549 NSCLC; 97.4 µM with SF-268 CNS; more than 100 µM in the test on NCI-H460 lung; 74 µM with OVCAR-3 ovarian. Moreover, the GI50 in the test on NCI-H226 lung, in the test on U251 CNS, in the test on COLO 205 colon and with SK-OV-3 ovarian was more than 100 µM throughout. The TGI with KM12 colon, in the test with HT29 colon, in the test on A549 NSCLC, in the test with SF-268 CNS, with NCI-H460 lung and with OVCAR-3 ovarian was more than 100 µM each time. In addition, the TGI in the test on NCI-H226 lung, in the test on U251 CNS, in the test on COLO 205 colon and in the test with SK-OV-3 ovarian was more than 100 µM throughout.

`Cc1[nH]c2ccccc2c1-c1cc(-c2cc(-c3c(C)[nH]c4ccccc34)nc(N)n2)nc(N)n1`: the TGI with KM12 colon, in the test with HT29 colon, in the test with A549 NSCLC, in the test with SF-268 CNS, in the test on NCI-H460 lung and in the test on OVCAR-3 ovarian was more than 100 µM throughout. Moreover, the TGI with NCI-H226 lung, in the test with U251 CNS, in the test on COLO 205 colon and in the test with SK-OV-3 ovarian was more than 100 µM each time.

Take `COc1cc2c3c(n(CCCNCCCNCCCNCCCN)c(=O)c2cc1OC)-c1cc2c(cc1C3=O)OCO2`: the GI50 was 1.73 µM in the test with KM12 colon; 2.28 µM in the test on HT29 colon; 2.2 µM in the test with A549 NSCLC; 1.7 µM in the test with SF-268 CNS; 1.32 µM in the test on NCI-H460 lung; 1.57 µM in the test on OVCAR-3 ovarian. Also, the GI50 in the test on NCI-H226 lung is 2.92 µM; with U251 CNS it was 1.33 µM; in the test on COLO 205 colon, 1.49 µM; with SK-OV-3 ovarian it was 8.52 µM. For the same molecule, the TGI worked out at 4.03 µM in the test with KM12 colon; 16.4 µM in the test with HT29 colon; 11.7 µM in the test on A549 NSCLC; 4.33 µM in the test on SF-268 CNS; 4.25 µM in the test on NCI-H460 lung; 3.88 µM with OVCAR-3 ovarian. The TGI in the test on NCI-H226 lung is 7.26 µM; in the test with U251 CNS, 3.81 µM; in the test with COLO 205 colon it was more than 100 µM; in the test on SK-OV-3 ovarian, more than 100 µM.

Turning to `CS(=O)(=O)Nc1cccc(-c2cc(-c3ccccc3Cl)c(C#N)c(N)n2)c1`, the GI50 with KM12 colon was 0.443 µM; with HT29 colon, 0.389 µM; in the test with A549 NSCLC, 0.655 µM; in the test on SF-268 CNS it was 1.05 µM; in the test with NCI-H460 lung it was 0.417 µM; in the test on OVCAR-3 ovarian it was 0.298 µM. The GI50 was 10.2 µM with NCI-H226 lung, 0.531 µM in the test with U251 CNS, 0.472 µM in the test on COLO 205 colon and 0.737 µM in the test with SK-OV-3 ovarian. The TGI was 13.1 µM in the test with KM12 colon; 11.9 µM in the test on HT29 colon; 16.6 µM in the test on A549 NSCLC; 19.1 µM in the test on SF-268 CNS; 11.5 µM with NCI-H460 lung; 2.8 µM with OVCAR-3 ovarian. Also, the TGI with NCI-H226 lung came to 32.3 µM; in the test with U251 CNS it was 15.4 µM; with COLO 205 colon, 4.88 µM; in the test on SK-OV-3 ovarian, 13.8 µM.

As for `COC(=O)Nc1nc2ccc(C(=O)c3ccc(N(C)C4COC4)cc3)cc2[nH]1`, the GI50 in the test with KM12 colon was 0.36 µM; in the test with HT29 colon, 0.34 µM; in the test on A549 NSCLC, 0.655 µM; in the test with SF-268 CNS, 0.745 µM; with NCI-H460 lung it was 0.359 µM; in the test on OVCAR-3 ovarian, 0.375 µM. Besides, the GI50 with NCI-H226 lung is 1.99 µM; with U251 CNS, 0.397 µM; in the test with COLO 205 colon, 0.285 µM; in the test on SK-OV-3 ovarian, 0.536 µM. Moreover, the TGI in the test with KM12 colon, in the test with HT29 colon, in the test on A549 NSCLC, in the test with SF-268 CNS, with NCI-H460 lung and in the test on OVCAR-3 ovarian was more than 100 µM each time. Also, the TGI was more than 100 µM in the test on NCI-H226 lung, more than 100 µM in the test with U251 CNS, 1.03 µM in the test on COLO 205 colon and more than 100 µM in the test on SK-OV-3 ovarian.

In the case of `C[C@@H]1Cc2c([nH]c3ccccc23)[C@@H](c2c(F)cc(NC3CN(CCCF)C3)cc2F)N1CC(F)(F)CO`, the GI50 in the test on KM12 colon was 4.21 µM; with HT29 colon it was 3.7 µM; in the test on A549 NSCLC, 9.91 µM; in the test with SF-268 CNS it was 4.78 µM; with NCI-H460 lung it was 5.19 µM; in the test with OVCAR-3 ovarian it was 11.3 µM. In addition, the GI50 with NCI-H226 lung is 7.71 µM; in the test with U251 CNS, 6.1 µM; with COLO 205 colon it was 2.35 µM; in the test with SK-OV-3 ovarian it was 14.4 µM. Further, the TGI came out at 18 µM with KM12 colon; 15.3 µM in the test on HT29 colon; 28.7 µM in the test on A549 NSCLC; 19.5 µM in the test with SF-268 CNS; 19.2 µM with NCI-H460 lung; 26.3 µM with OVCAR-3 ovarian. For the same molecule, the TGI in the test on NCI-H226 lung was determined as 25.8 µM; with U251 CNS it was 21.2 µM; in the test with COLO 205 colon, 5.71 µM; in the test on SK-OV-3 ovarian it was 28.4 µM.
